Measurements as given in US11352405B2, “GLP-1/glucagon receptor agonists in the treatment of fatty liver disease and steatohepatitis” (SANOFI, priority 2017, dated 2022).
Starred links: 1 amine or outer side, 2 acyl side, 3 side chain; linkers in the order of their positions; H or OH if unused. Non-standard residues stand in square brackets, D forms with d. Groups on a side chain read outwards from the residue. No end group written: not given here. Stea = stearoyl, (S)-4-carboxy-4-octadecanoylamino-butyryl on Lys via γGlu; γGlu = O=C(O)[C@H](CCC(=O)[*:2])N[*:1]

Legend:
[1] = target: human GLP-1 receptor (Homo sapiens, UniProt P43220); assay: binding to human GLP-1 receptor
Sequence of human GLP-1 receptor (P43220 24-463): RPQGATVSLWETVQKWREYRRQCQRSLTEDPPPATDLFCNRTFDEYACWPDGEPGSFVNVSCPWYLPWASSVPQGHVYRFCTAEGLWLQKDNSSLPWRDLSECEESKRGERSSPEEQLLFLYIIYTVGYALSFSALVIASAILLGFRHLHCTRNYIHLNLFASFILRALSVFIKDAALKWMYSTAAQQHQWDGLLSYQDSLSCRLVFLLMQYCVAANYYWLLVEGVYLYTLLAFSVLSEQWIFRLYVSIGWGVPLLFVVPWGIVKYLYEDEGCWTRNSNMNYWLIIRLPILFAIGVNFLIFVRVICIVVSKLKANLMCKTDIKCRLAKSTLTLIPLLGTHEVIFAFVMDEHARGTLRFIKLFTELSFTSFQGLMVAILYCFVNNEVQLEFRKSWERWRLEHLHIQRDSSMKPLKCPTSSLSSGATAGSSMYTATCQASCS

[2] = system: mice with AMLN-diet-induced NASH; assay: murine diet-induced NASH model (AMLN diet), eight-week treatment; format: in vivo, C57BL/6J mice
Source text: Test compounds were investigated in a mouse model of NASH (murine diet-induced NASH model) as described in Kristiansen et al (World Journal of Hepatology 2016, vol. 8, pp. 673-684). C57BL/6J mice were given ad libitum access to a diet (D09100301, Research Diet, United States) high in fat (40%, of these 18% trans-fat), carbohydrates (40%, of these 20% fructose) and cholesterol (2%) that has previously been described as AMLN diet ([…] et al., Am J Physiol Gastrointest Liver Physiol 2013, vol. 305, pp. G483-G495). A control group was kept on regular rodent chow (Altromin 1324, Brogaarden, Denmark). After 26 weeks on the diet, a liver biopsy was performed for histological assessment of NASH and fibrosis at baseline. For this purpose, about 100 mg liver tissue were collected from the left lateral lobe, fixed overnight in 4% paraformaldehyde, paraffin-embedded and sectioned (3 μm thickness). For histological assessment, sections were stained with hematoxylin, eosin or Sirius Red and followed by analysis with Visiomorph software (Visiopharm, Denmark). Histological scoring was performed by a pathologist blinded to the study. NAFLD activity score and fibrosis score were determined according to the clinical criteria outlined by Kleiner et al (Hepatology 2005, […], pp. 1313-1321). Animals were randomized into different treatment groups according to body weight and extent of fibrosis. Treatment period was eight weeks during which animals remained on the AMLN diet. Compounds were given by once-daily or twice-daily subcutaneous injection. Vehicle-treated animals on AMLN diet and non-treated animals on regular rodent chow were included as controls. Group sizes were between 8 and 14 animals. After treatment, terminal liver samples were collected and analysed as for the pre-biopsy. Dual-agonistic GLP1R/GCGR agonistic peptides were investigated in a murine model of NASH as described in the methods section. Treatment duration was eight weeks over which animals remained on the NASH-inducing AMLN diet. The GLP1R-specific agonist liraglutide (SEQ ID NO.: 4) was included as a reference compound. In the diet-induced murine NASH model, compounds were administered at the following doses (all via subcutaneous injections): SEQ ID NO.: 2 10 μg/kg b.i.d., SEQ ID NO.:3 30 μg/kg q.d. in comparison to liraglutide (SEQ ID NO.: 4) at 200 μg/kg q.d., SEQ ID NO.: 1 10 μg/kg b.i.d. or 30 μg/kg b.i.d. in comparison to liraglutide (SEQ ID NO.: 4) at 100 μg/kg b.i.d.

[3] = target: human glucagon receptor (Homo sapiens, UniProt P47871); assay: binding to human glucagon receptor
Sequence of human glucagon receptor (P47871 26-477): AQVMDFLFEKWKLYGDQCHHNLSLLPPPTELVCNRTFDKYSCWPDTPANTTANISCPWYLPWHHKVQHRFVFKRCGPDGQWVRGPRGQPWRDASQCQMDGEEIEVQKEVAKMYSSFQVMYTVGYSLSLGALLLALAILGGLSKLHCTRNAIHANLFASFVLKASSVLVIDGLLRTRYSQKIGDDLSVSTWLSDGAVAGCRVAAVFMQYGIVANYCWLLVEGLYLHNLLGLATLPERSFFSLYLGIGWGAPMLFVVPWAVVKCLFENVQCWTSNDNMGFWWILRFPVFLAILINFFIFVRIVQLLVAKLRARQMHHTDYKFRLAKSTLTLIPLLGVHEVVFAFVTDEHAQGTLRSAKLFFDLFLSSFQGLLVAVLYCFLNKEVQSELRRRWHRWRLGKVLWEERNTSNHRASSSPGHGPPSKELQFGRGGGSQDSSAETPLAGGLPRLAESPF

[4] = 10 μg/kg b.i.d. s.c., eight weeks, vehicle increased by 0.2 points
[5] = 30 μg/kg twice daily s.c., eight weeks, AMLN diet mice (FIG. 3A study)
[6] = 10 μg/kg b.i.d. s.c., eight weeks, AMLN diet mice (FIG. 1A study)

## H-dS-Q-G-T-F-T-S-D-L-S-K-Q-K(γE-Palm)-ESKAAQDFIEWLKAGGPSSGAPPPS-NH2 (HXQGTFTSDLSKQKESKAAQDFIEWLKAGGPSSGAPPPS; D-Ser1; K14 γE-palmitoyl; C-terminal amide; Exendin-4 analogue; MOD_RES (2)..(2) Xaa is D-Ser; MOD_RES (14)..(14) Lys is functionalized at the amino side chain group as Lys((S)-4-carboxy-4-hexadecanoylamino-butyryl); MOD_RES (39)..(39) amidated C-terminus) [SEQ ID NO.: 1, exendin-4 derivative of formula A, dual GLP-1/glucagon receptor agonist]
[1]
  binding to human GLP-1 receptor: good binding
[2]; [4]
  decrease in mean NAS vs baseline: 2.0 points
[2]; 10 μg/kg twice daily s.c., eight weeks, AMLN diet mice (FIG. 3A study), vehicle gained 0.5 grams
  weight loss vs baseline: 3.0 grams
[2]; 10 μg/kg twice daily s.c., eight weeks, AMLN diet mice (FIG. 3A study), vehicle gained 1.3%
  weight loss vs baseline (% of body weight): 8.5%
[2]; 30 μg/kg b.i.d. s.c., eight weeks, vehicle increased by 0.2 points, p<0.05 vs liraglutide
  decrease in mean NAS vs baseline: 1.9 points
[2]; [5]
  weight loss vs baseline: 3.9 grams
  weight loss vs baseline (% of body weight): 11.4%
[2]; both doses, 10 and 30 μg/kg b.i.d. s.c., eight weeks (FIG. 3E)
  change in fibrosis vs baseline: trend to an improvement in fibrosis
[3]
  binding to human glucagon receptor: good binding

## H-dS-Q-G-T-F-T-S-D-L-S-K-Q-K(γE-Palm)-DSRRAQDFIEWLKNGGPSSGAPPPS-NH2 (HXQGTFTSDLSKQKDSRRAQDFIEWLKNGGPSSGAPPPS; D-Ser1; K14 γE-palmitoyl; C-terminal amide; Exendin-4 analogue; MOD_RES (2)..(2) Xaa is D-Ser; MOD_RES (14)..(14) Lys is functionalized at the amino side chain group as Lys((S)-4-carboxy-4-hexadecanoylamino-butyryl); MOD_RES (39)..(39) amidated C-terminus) [SEQ ID NO.: 2, exendin-4 derivative of formula A, dual GLP-1/glucagon receptor agonist]
[2]; 10 μg/kg b.i.d. s.c., after eight weeks, baseline 1.2, vehicle group did not change
  mean fibrosis stage after treatment: 0.6
[2]; 10 μg/kg b.i.d. s.c., eight weeks (FIG. 1D)
  components of NAS (steatosis, inflammation and hepatocyte ballooning scores): reduction in score was seen for all three components of NAS
[2]; [6]
  weight loss vs vehicle: 4.9 grams
  weight loss vs vehicle, % of body weight at baseline: 13.5%
[2]; 10 μg/kg b.i.d. s.c., eight weeks, AMLN diet mice (FIG. 1A study), vehicle gained 2.1 grams
  weight loss vs baseline: 2.8 gram
[2]; 10 μg/kg b.i.d. s.c., eight weeks, AMLN diet mice (FIG. 1A study), vehicle gained 5.6%
  weight loss vs baseline (% of body weight): 7.7%
[2]; [4]
  reduction in NAFLD activity score (NAS) vs baseline: 2.3 points

## H-dS-Q-G-T-F-T-S-D-L-S-K-Q-K(γE-Stea)-DEQLAKDFIEWLKAGGPSSGAPPPS-NH2 (H[dS]QGTFTSDLSKQK([γGlu-Stea])DEQLAKDFIEWLKAGGPSSGAPPPS-NH2) [SEQ ID NO.: 3, exendin-4 derivative of formula A, dual GLP-1/glucagon receptor agonist]
[2]; 30 μg/kg q.d. s.c., eight weeks, AMLN diet mice (FIG. 2A study), vehicle gained 1.1 grams
  weight loss vs baseline: 3.9 grams
[2]; 30 μg/kg q.d. s.c., eight weeks, AMLN diet mice (FIG. 2A study), vehicle gained 3.0%
  weight loss vs baseline (% of body weight): 10.5%
[2]; 30 μg/kg q.d. s.c., eight weeks, vehicle increased by 0.1 points
  change in mean fibrosis score vs baseline: remained unchanged
[2]; 30 μg/kg q.d. s.c., eight weeks, vehicle increased by 0.8 points, p<0.001 vs vehicle, p<0.05 vs liraglutide
  decrease in NAS vs baseline: 1.6 points
